According to a compilation of properties of binary mixtures (doi:10.1007/s10953-014-0273-1):

Test: xn = mol fraction of the nth substance listed
Conditions: 101 kPa

CCCC[n+]1ccn(C)c1.F[B-](F)(F)F + CC#N
viscosity [mPa·s]
Conditions	x2 = 0	x2 = 0.1001	x2 = 0.2034	x2 = 0.3011	x2 = 0.4013	x2 = 0.5	x2 = 0.6018	x2 = 0.7	x2 = 0.7997	x2 = 0.9001
303.15 K	–	55.2	–	23.74	14.97	9.25	5.34	3	1.611	0.792
313.15 K	53	36.5	24.4	16.9	–	7.14	–	2.522	1.389	0.707
323.15 K	–	25.36	17.76	–	8.57	–	3.58	2.155	–	0.636
333.15 K	25.01	18.43	13.23	9.83	6.83	4.69	3.03	1.877	1.103	0.579

CCCC[n+]1ccn(C)c1.F[B-](F)(F)F + CC(=O)N(C)C
viscosity [mPa·s]
Conditions	x2 = 0	x2 = 0.1006	x2 = 0.2004	x2 = 0.3005	x2 = 0.4011	x2 = 0.5002	x2 = 0.5998	x2 = 0.6996	x2 = 0.8002	x2 = 0.8999
303.15 K	84.2	59	41.6	29	19.38	12.88	8.32	4.99	2.95	1.679
313.15 K	53	38.5	28	20.16	14	–	6.32	4	2.44	–
323.15 K	35.5	26.6	19.88	14.62	10.55	7.37	–	–	2.069	–
333.15 K	25.01	19.27	14.76	11.08	8.15	5.87	4.09	2.77	–	1.1

CC#N + CCCC[n+]1ccn(C)c1.F[B-](F)(F)F
x1 = 1
Conditions	viscosity [mPa·s]
303.15 K	0.329
313.15 K	0.3
323.15 K	0.276

CC(=O)N(C)C + CCCC[n+]1ccn(C)c1.F[B-](F)(F)F
x1 = 1
Conditions	viscosity [mPa·s]
303.15 K	0.882
323.15 K	0.69
333.15 K	0.618

CN1CCCC1=O + CCCC[n+]1ccn(C)c1.F[B-](F)(F)F
Conditions	viscosity [mPa·s]
303.15 K, x1 = 1	1.551

CO + CCCC[n+]1ccn(C)c1.F[B-](F)(F)F
x1 = 1
Conditions	viscosity [mPa·s]
313.15 K	0.455
323.15 K	0.401

CCCC[n+]1ccn(C)c1.F[B-](F)(F)F + CN1CCCC1=O
viscosity [mPa·s]
Conditions	x2 = 0	x2 = 0.0999	x2 = 0.2001	x2 = 0.3028	x2 = 0.4	x2 = 0.4999	x2 = 0.5998	x2 = 0.7001	x2 = 0.8003	x2 = 0.9001
303.15 K	–	–	–	–	–	17.17	11.43	7.37	4.64	2.9
313.15 K	53	41	31.6	23.77	17.42	12.5	8.61	5.75	3.76	2.409
323.15 K	–	28.2	22.15	17.13	13	9.47	6.73	–	3.13	1.991
333.15 K	25.01	20.3	16.25	12.83	9.93	7.46	5.37	3.79	2.66	1.722

CCCC[n+]1ccn(C)c1.F[B-](F)(F)F + CO
viscosity [mPa·s]
Conditions	x2 = 0	x2 = 0.1003	x2 = 0.2047	x2 = 0.2997	x2 = 0.3996	x2 = 0.504	x2 = 0.6004	x2 = 0.6992	x2 = 0.7997	x2 = 0.9001
303.15 K	84.2	54.2	34.6	23.54	15.02	9.42	–	3.67	2.118	1.141
313.15 K	–	–	–	16.93	11.32	7.4	4.86	3.03	–	–
323.15 K	35.5	–	17.81	12.9	8.94	6.02	–	2.537	1.527	0.895
333.15 K	25.01	18.68	13.6	10.13	–	5.03	3.42	2.195	1.337	0.765
